What all share (conditions): incubation time: 72 h
In one assay the test system is MFM-223. Description: drug sensitivity score (DSS), CellTox Green (DSS (AUC-based score)); higher = stronger drug effect (viability inhibition or cytotoxicity); extreme values may be limits of the assay. The procedure, abridged: (§1)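 Breast cancer cell lines were seeded in 20 µl suspension into 384-well plates already holding compound and incubated for 72 h. Each compound was tested at 5 concentrations in 10-fold steps across its own 10,000-fold range. Plates were normalised to 0.1 % DMSO and a positive kill control after CellTox Green and then CellTiter-Glo readings. The area under the fitted dose-response curve served as the basis for the drug sensitivity score.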

The subject of a further assay is CAL-148. The description is as above. In outline:
as §1

For assay [1], the system named is Hs578T. The assay is described as above. The procedure, abridged:
as §1

For a further assay, the system named is MDA-MB-436. Described as above. The procedure, abridged:
as §1

Assay [2] deals with HCC1599. Described as above. The procedure, abridged:
as §1

Assay [3] concerns MDA-MB-453. The assay is described as above. In outline:
as §1

For assay [4], the system named is BT-474. The assay is described as above. The procedure, abridged: as §1
The test system of assay [5] is HCC1937. The description is as above. In outline:
as §1

In another assay the test system is CAL-85-1. Described as above. In outline: as §1
Another assay concerns HDQ-P1. Described as above. In outline:
as §1

A further assay has as its system MDA-MB-468. Described as above. The procedure, abridged:
as §1

Another assay concerns CAL-51. The description is as above. The procedure, abridged:
as §1

In a further assay the test system is DU-4475. The description is as above. The procedure, abridged: as §1
Assay [6] has as its system MCF-10A. The description is as above. In outline: as §1
Assay [7] concerns CAL-120. The description is as above. In outline:
as §1

For assay [8], the system named is MDA-MB-231. Described as above. The procedure, abridged: as §1
Assay [9] has as its system BT-549. The assay is described as above. The procedure, abridged: as §1
The next assay has as its system HCC1143. The description is as above. In outline:
as §1

The test system of assay [10] is Hs578T. Description: normalised response (% of control), CellTox Green; higher = less cell death (100 = DMSO, 0 = benzethonium chloride kill control). The procedure, abridged: (§2)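 Values are normalised signals, each belonging to one concentration of the series. Breast cancer cells (20 µl suspension) were seeded into 384-well plates with compound at 5 concentrations in 10-fold steps over a compound-specific 10,000-fold range and incubated 72 h. Readouts were CellTox Green fluorescence (485/520 nm), then CellTiter-Glo luminescence after 10 min at room temperature, with each plate set to 0.1 % DMSO as 100 and a positive kill control as 0.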

The test system of assay [11] is HCC1599. Described as above. In outline: as §2
In assay [12] the test system is MDA-MB-453. The description is as above. In outline:
as §2

Assay [13] has as its system BT-474. Described as above. The procedure, abridged:
as §2

In assay [14] the test system is HCC1937. The assay is described as above. In outline: as §2
The test system of assay [15] is BT-549. The assay is described as above. The procedure, abridged: as §2
Assay [16] deals with MCF-10A. Described as above. In outline:
as §2

Assay [17] concerns CAL-120. The assay is described as above. In outline:
as §2

The test system of assay [18] is MDA-MB-231. The assay is described as above. In outline: as §2

Consider `CN(C)C(=N)NC(=N)N` [Metformin], for which the drug sensitivity score in the assay on MFM-223 is 0; in the assay on CAL-148 it was 0; in the assay with Hs578T [1], 4.84; in the assay on MDA-MB-436 it was 0; in the assay with HCC1599 [2], 1.75; in the assay with MDA-MB-453 [3] it was 0. The drug sensitivity score in the assay on BT-474 [4] was found to be 0; in the assay with HCC1937 [5], 0; in the assay on CAL-85-1, 0; in the assay with HDQ-P1, 0; with MDA-MB-468, 14.1; in the assay with CAL-51, 8.43. In addition, the drug sensitivity score in the assay on DU-4475, in the assay with MCF-10A [6], in the assay on CAL-120 [7] and with MDA-MB-231 [8] was 0 in each case.

Turning to `CO[C@@H]1[C@H](N(C)C(=O)c2ccccc2)C[C@H]2O[C@]1(C)n1c3ccccc3c3c4c(c5c6ccccc6n2c5c31)C(=O)NC4` [Midostaurin], the drug sensitivity score in the assay on MFM-223 came out at 0; with Hs578T [1], 11.5; with MDA-MB-436, 0; with HCC1599 [2], 0; in the assay on MDA-MB-453 [3], 0; with BT-474 [4], 0.973. For the same molecule, the drug sensitivity score was determined as 0 in the assay with HCC1937 [5]; 0 in the assay on CAL-85-1; 12.6 with BT-549 [9]; 1.96 with HDQ-P1; 17 in the assay on MDA-MB-468; 29.9 with CAL-51. Further, the drug sensitivity score in the assay with DU-4475 came out at 0; with MCF-10A [6], 0; in the assay with HCC1143, 0; with CAL-120 [7] it was 3.96; in the assay on MDA-MB-231 [8] it was 7.87.

On to `CC1(C)CCC(c2ccc(Cl)cc2)=C(CN2CCN(c3ccc(C(=O)NS(=O)(=O)c4ccc(N[C@H](CCN5CCOCC5)CSc5ccccc5)c(S(=O)(=O)C(F)(F)F)c4)cc3)CC2)C1` [Navitoclax], for which the drug sensitivity score in the assay with MFM-223 came to 1.23; in the assay on CAL-148 it was 4.49; in the assay on Hs578T [1] it was 0; in the assay on MDA-MB-436, 0; with HCC1599 [2] it was 0; in the assay on MDA-MB-453 [3], 0. The drug sensitivity score with BT-474 [4] came to 2.28; in the assay with HCC1937 [5] it was 0; in the assay on CAL-85-1, 3.45; in the assay on BT-549 [9], 0; with HDQ-P1 it was 17.2; with MDA-MB-468, 6.68. Further, the drug sensitivity score with CAL-51 is 8.56; in the assay on DU-4475, 0; in the assay on HCC1143, 0; in the assay on CAL-120 [7], 10.9; with MDA-MB-231 [8] it was 21.5.

Consider `CC1(C)CCC(c2ccc(Cl)cc2)=C(CN2CCN(c3ccc(C(=O)NS(=O)(=O)c4ccc(N[C@H](CCN5CCOCC5)CSc5ccccc5)c(S(=O)(=O)C(F)(F)F)c4)cc3)CC2)C1` [Navitoclax] (10000 nM), for which the normalised response worked out at 101% in the assay on Hs578T [10]; 103% in the assay on HCC1599 [11]; 86.5% in the assay with MDA-MB-453 [12]; 70.3% in the assay on BT-474 [13]; 69.4% with HCC1937 [14]; 97.3% with BT-549 [15]. The normalised response in the assay on MCF-10A [16] was 60.6%; in the assay on CAL-120 [17], 13.6%; in the assay on MDA-MB-231 [18], -60.4%.

Consider `Cc1cn(-c2cc(NC(=O)c3ccc(C)c(Nc4nccc(-c5cccnc5)n4)c3)cc(C(F)(F)F)c2)cn1` [Nilotinib] (1000 nM), for which the normalised response in the assay with Hs578T [10] came out at 104%; in the assay on HCC1599 [11], 101%; with MDA-MB-453 [12] it was 106%; in the assay on BT-474 [13] it was 88.8%; in the assay on HCC1937 [14] it was 131%; with BT-549 [15], 85.9%. The normalised response in the assay on MCF-10A [16] amounted to 107%; in the assay on CAL-120 [17], 97%; in the assay on MDA-MB-231 [18] it was 68.5%.

Turning to `Cc1cn(-c2cc(NC(=O)c3ccc(C)c(Nc4nccc(-c5cccnc5)n4)c3)cc(C(F)(F)F)c2)cn1` [Nilotinib] (10000 nM), the normalised response in the assay on Hs578T [10] was found to be 64.7%; with HCC1599 [11], 105%; with MDA-MB-453 [12], 102%; with BT-474 [13] it was 100%; in the assay on HCC1937 [14], 93.1%; in the assay on BT-549 [15], 80.7%. Besides, the normalised response amounted to 98.3% in the assay on MCF-10A [16], 101% with CAL-120 [17] and 84.3% in the assay on MDA-MB-231 [18].

As to `C=CCN(/C=C1/C(=O)O[C@H](COC)[C@@]2(C)C1=C(O)C(=O)C1=C2[C@H](OC(C)=O)C[C@]2(C)C(=O)CC[C@@H]12)CC=C` [Sonolisib], the drug sensitivity score in the assay with MFM-223, with CAL-148, in the assay on Hs578T [1], in the assay on MDA-MB-436, in the assay with HCC1599 [2] and in the assay with MDA-MB-453 [3] was 0 throughout. For the same molecule, the drug sensitivity score in the assay on BT-474 [4] is 0; with HCC1937 [5], 0; with CAL-85-1, 2.28; with BT-549 [9], 0; in the assay with HDQ-P1, 0; in the assay with CAL-51 it was 0. Besides, the drug sensitivity score in the assay with DU-4475, with MCF-10A [6], in the assay with HCC1143, in the assay with CAL-120 [7] and in the assay on MDA-MB-231 [8] was 0 each time.

As for `CC(C)n1cnc2c(NCCc3ccc(O)cc3)nc(-c3csc4ccccc34)nc21` [StemRegenin 1], the drug sensitivity score was found to be 5.31 in the assay on MFM-223; 0 in the assay on CAL-148; 0 in the assay with MDA-MB-436; 0 in the assay on HCC1599 [2]; 0 with MDA-MB-453 [3]; 1.03 with BT-474 [4]. For the same molecule, the drug sensitivity score in the assay on HCC1937 [5], with CAL-85-1, in the assay on BT-549 [9], with HDQ-P1, in the assay with MDA-MB-468 and in the assay on CAL-51 was 0 in each case. Further, the drug sensitivity score in the assay on DU-4475, in the assay with MCF-10A [6], in the assay with HCC1143, with CAL-120 [7] and in the assay on MDA-MB-231 [8] was 0 each time.

Take `O=C(CCCCCCC(=O)Nc1ccccc1)NO` [Vorinostat] (1000 nM): the normalised response in the assay with Hs578T [10] was found to be 78.8%; with HCC1599 [11] it was 91.8%; in the assay with MDA-MB-453 [12], 93.9%; with BT-474 [13], 96.8%; with HCC1937 [14], 122%; in the assay with BT-549 [15], 115%. Further, the normalised response with MCF-10A [16] turned out to be 89.9%; in the assay on CAL-120 [17], 95.1%; with MDA-MB-231 [18] it was 83.2%.

On to `O=C(CCCCCCC(=O)Nc1ccccc1)NO` [Vorinostat] (10000 nM), for which the normalised response in the assay with Hs578T [10] was determined as 60.6%; with HCC1599 [11], 81.9%; in the assay with MDA-MB-453 [12] it was 82.7%; in the assay on BT-474 [13], 32.6%; in the assay on HCC1937 [14], 84.3%; in the assay on BT-549 [15], 74.8%. Moreover, the normalised response with MCF-10A [16] is 98.4%; in the assay with CAL-120 [17] it was 36.3%; in the assay with MDA-MB-231 [18] it was -55.1%.

For the origin of these results see the supplement of paper PMC4862054.
